Source: the supplement of paper PMC11208160

assay: recombinant barcode read abundance after kanamycin selection (control-corrected) (log10(CPM+1)); higher = more efficient recombination; sequences stand for … in AGTGCAGAGAAAATCGGCCAGTTTTCTCTGCCTGCAGTCCGCATGCCGT…AGATTTATGCAGCGGACTGCCTTTCTCCCAAAGTGATAAACCGGACAGTATCATGGACCGGTTTTCCCGGTAATCCGTATTTGCAAGGTTGGTTTCACT; site = the 11-nt target
Summary of the method: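 Targets were screened in pooled form in E. coli against IS621 bridge RNA target-binding loops. Recombination efficiency is based on barcode counts at recombinant junctions in counts per million, averaged and corrected for the control. Numbers are shown as log10(CPM+1), with duplicate plates on chloramphenicol/ampicillin LB agar (control) or chloramphenicol/ampicillin/kanamycin with 0.1 mM IPTG.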
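Also: IS621 recombinase and bridge RNA in Escherichia coli cells.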

| Sequence | recombinant barcode read abundance (log10) |
| --- | --- |
| TTCAACTCTTGGGTTCTAACCTGTTGCGT (site TTCAACTCTAC) | 1.56 |
| AGACGGACTTGGGTTCTAACCTGTTGCCA (site AGACGGACTTG) | 1.68 |
| GCGAACCCTTGGGTTCTAACCTGTTGCGG (site GCTAACCCTAC) | 0.0412 |
| GGTTGCCCTTGGGTTCTAACCTGTTGCGG (site GGTTGCCCTCC) | 0.946 |
| GACTATTCTTGGGTTCTAACCTGTTGCCT (site GAGTATTCTAG) | 0.106 |
| CGGGCCTCTTGGGTTCTAACCTGTTGCTG (site CGGGCCTCTCA) | 2.82 |
| TCGGATACTTGGGTTCTAACCTGTTGCTT (site TCGGATACTAA) | 0.659 |
| CACATGGCTTGGGTTCTAACCTGTTGCCG (site CACAGGGCTCC) | 0.159 |
| TTGGTAGCTTGGGTTCTAACCTGTTGCCT (site TTGGTAGCTAG) | 1.63 |
| GAGGCTCCTTGGGTTCTAACCTGTTGCCA (site GAGGCTCCTAG) | 2.19 |
| GATAGTGCTTGGGTTCTAACCTGTTGCCT (site GATAGTCCTAG) | 0.0622 |
| GGGGCGTCTTGGGTTCTAACCTGTTGCCT (site GGGGCGGCTAG) | 0.172 |
| GTAGTATCTTGGGTTCTAACCTGTTGCCT (site GTAGTACCTAG) | 0.115 |
| CTGTTCCCTTGGGTTCTAACCTGTTGCGG (site CTGATCCCTCC) | 0.291 |
| TGAAAGACTTGGGTTCTAACCTGTTGCCG (site TGAAAGACTCG) | 0.762 |
| ACTTGAACTTGGGTTCTAACCTGTTGCTT (site ACTTGAACTAA) | 0.0959 |
| AGGCGTCCTTGGGTTCTAACCTGTTGCCG (site AGGCGTCCTAG) | 0.964 |
| TACAGTCCTTGGGTTCTAACCTGTTGCCT (site TGCACTCCTAG) | 0.276 |
| TAGTTAGCTTGGGTTCTAACCTGTTGCCC (site TAGTTAGCTTG) | 0.0262 |
| TGAAGGTCTTGGGTTCTAACCTGTTGCCT (site TGAACGTCTAG) | 0.175 |
| CACTCTGCTTGGGTTCTAACCTGTTGCCT (site CATTCTGCTAG) | 0.332 |
| CCAGATTCTTGGGTTCTAACCTGTTGCCT (site CAAGATTCTAG) | 0.154 |

| Sequence | recombinant barcode read abundance (log10) |
| --- | --- |
| AGCAGCCCTTGGGTTCTAACCTGTTGCAG (site AGCAGCCCTCT) | 1.72 |
| CCGCAGACTTGGGTTCTAACCTGTTGCCA (site TCGCAGACTAG) | 0.0447 |
| TTGGCAGCTTGGGTTCTAACCTGTTGCCT (site TTGGTAGCTAG) | 0.0352 |
| GGGGCACCTTGGGTTCTAACCTGTTGCAT (site GGGGCACCTAA) | 1.56 |
| ATCAAGACTTGGGTTCTAACCTGTTGCCT (site ATGAAGACTAG) | 0.252 |
| GGGTCCTCTTGGGTTCTAACCTGTTGCCT (site GGGTCCTCTGG) | 0.578 |
| ATTTAACCTTGGGTTCTAACCTGTTGCGT (site ATTTAACCTAC) | 2.11 |
| TCTGGGCCTTGGGTTCTAACCTGTTGCTA (site TCTGGGCCTTA) | 0.364 |
| CCTGGGCCTTGGGTTCTAACCTGTTGCCT (site CTTGGGCCTAG) | 0 |
| CGCTGGACTTGGGTTCTAACCTGTTGCCT (site CGCTTGACTAG) | 0.0799 |
| GGTATGACTTGGGTTCTAACCTGTTGCCT (site CGTATGACTAG) | 0.197 |
| GACGCTTCTTGGGTTCTAACCTGTTGCAT (site GACGCTTCTAT) | 0.254 |
| GGGGTATCTTGGGTTCTAACCTGTTGCCT (site GCGGTATCTAG) | 0.0929 |
| GTCGGAGCTTGGGTTCTAACCTGTTGCTG (site GTCGGAGCTCA) | 0.757 |
| GTCAGGGCTTGGGTTCTAACCTGTTGCCT (site GTCATGGCTAG) | 0.197 |
| CGGGCCACTTGGGTTCTAACCTGTTGCCT (site CTGGCCACTAG) | 0.177 |
| ACGACTCCTTGGGTTCTAACCTGTTGCTG (site ACGACTCCTCA) | 0.485 |
| GTCATGTCTTGGGTTCTAACCTGTTGCTG (site GTCATGTCTCA) | 1.5 |
| ACAGATTCTTGGGTTCTAACCTGTTGCCT (site ATAGAGTCTAG) | 0.0143 |
| AGAGCCACTTGGGTTCTAACCTGTTGCTA (site AGAGCCACTTA) | 2.09 |
| CTACAGACTTGGGTTCTAACCTGTTGCGG (site CTACAGACTTC) | 1.31 |
| AACAATGCTTGGGTTCTAACCTGTTGCCT (site AACATTGCTAG) | 0.0444 |

| Sequence | recombinant barcode read abundance (log10) |
| --- | --- |
| CGAACTACTTGGGTTCTAACCTGTTGCTT (site CGAACTACTAG) | 0.202 |
| TACCGGCCTTGGGTTCTAACCTGTTGCTT (site TACCGGCCTAA) | 0.444 |
| CCGTCTACTTGGGTTCTAACCTGTTGCTC (site CCGTCTACTAA) | 0.0412 |
| CTGTGAACTTGGGTTCTAACCTGTTGCCT (site CAGTGAACTAG) | 0.128 |
| TGAGTTCCTTGGGTTCTAACCTGTTGCTT (site TGAGTTCCTAA) | 0.719 |
| CTTCGGACTTGGGTTCTAACCTGTTGCTT (site GAGTCTCCTCC) | 0.133 |
| AGTTTCACTTGGGTTCTAACCTGTTGCTA (site GCCAAGGCTAG) | 1.31 |
| TCCGACTCTTGGGTTCTAACCTGTTGCCG (site TCCGACTCTCG) | 1.55 |
| GTCGACACTTGGGTTCTAACCTGTTGCCT (site GTCGAGTCTAG) | 0.126 |
| CGCACGTCTTGGGTTCTAACCTGTTGCTT (site CGCACGTCTAA) | 0.0911 |
| TCCCTTCCTTGGGTTCTAACCTGTTGCCT (site TCCCTTCCTAG) | 0.365 |
| GTCCGTCCTTGGGTTCTAACCTGTTGCAT (site GTCCGTCCTAC) | 0.688 |
| CGACGCACTTGGGTTCTAACCTGTTGCGG (site TAGTTGTCTAA) | 0.0412 |
| TAGGTCACTTGGGTTCTAACCTGTTGCAT (site TAGGTCACTAT) | 2.43 |
| AGGCGTCCTTGGGTTCTAACCTGTTGCCT (site AGGCGTCCTGG) | 1.03 |
| GGTGGGTCTTGGGTTCTAACCTGTTGCCT (site GGTGGGTCTAT) | 0.382 |
| TCTCGAGCTTGGGTTCTAACCTGTTGCGA (site CTGGCGCCTAT) | 0.839 |
| AATGTACCTTGGGTTCTAACCTGTTGCCT (site GATGTACCTAG) | 0.0545 |
| CTAAGTGCTTGGGTTCTAACCTGTTGCCA (site CTAAGCGCTTG) | 0.0378 |
| CTGTCGCCTTGGGTTCTAACCTGTTGCCT (site CTTTCGCCTAG) | 0.0305 |
| CGATGTCCTTGGGTTCTAACCTGTTGCCT (site CGATGTCCTAG) | 0.864 |
| GCAACCTCTTGGGTTCTAACCTGTTGCTA (site CGCTGACCTAG) | 0.049 |

| Sequence | recombinant barcode read abundance (log10) |
| --- | --- |
| CCTCGATCTTGGGTTCTAACCTGTTGCAT (site TCTCGATCTAT) | 0.185 |
| CCTAGAACTTGGGTTCTAACCTGTTGCCT (site CCTAGATCTAG) | 0.0929 |
| CAAGACCCTTGGGTTCTAACCTGTTGCCT (site CACGACCCTAG) | 0.763 |
| AGACATCCTTGGGTTCTAACCTGTTGCTT (site AGACGTCCTAA) | 0.0527 |
| GTTTCAACTTGGGTTCTAACCTGTTGCCA (site GTTTCAACTTG) | 0.061 |
| GTGGGCGCTTGGGTTCTAACCTGTTGCCT (site GTCGGCGCTAG) | 0.165 |
| AACGAGTCTTGGGTTCTAACCTGTTGCCT (site AGCGAGTCTAG) | 0.0187 |
| GTAAAACCTTGGGTTCTAACCTGTTGCCT (site GTAAAACCTAG) | 1.06 |
| ACTTGAACTTGGGTTCTAACCTGTTGCCT (site ACGTGAACTAG) | 0.146 |
| ACTTGAACTTGGGTTCTAACCTGTTGCCT (site ACCTGAACTAG) | 0.0239 |
| GAGCGTCCTTGGGTTCTAACCTGTTGCTA (site GAGCGTCCTTA) | 0.94 |
| CCACCGACTTGGGTTCTAACCTGTTGCCT (site GCACCAACTAG) | 0.257 |
| GCCAACCCTTGGGTTCTAACCTGTTGCCT (site GCCAACCCTAA) | 0.111 |
| ATGCAACCTTGGGTTCTAACCTGTTGCCT (site ATGCAACCTAG) | 0.827 |
| AAAGGGGCTTGGGTTCTAACCTGTTGCCT (site TTGCATTCTCA) | 0.155 |
| TCCCCGGCTTGGGTTCTAACCTGTTGCGG (site CAAAACTCTAA) | 0.262 |
| TGCCAGACTTGGGTTCTAACCTGTTGCAT (site TGCCAGCCTAG) | 0.466 |
| TGTCTATCTTGGGTTCTAACCTGTTGCCT (site TGTCTATCTAG) | 0.429 |
| CTAGATGCTTGGGTTCTAACCTGTTGCGA (site CTAGATGCTTC) | 1.94 |
| CTAAGTGCTTGGGTTCTAACCTGTTGCCA (site CTAAGAGCTTG) | 0.0354 |
